Test results as given in ChEMBL document CHEMBL4261618, “Monodisperse oligoethylene glycols modified Propofol prodrugs” (Bioorg Med Chem Lett, 2018).
Values after ≈ are worked out from the molar mass of the structure shown.

Test system: not listed separately
Test: Cytotoxicity against human A549 cells assessed as cell viability at 0.05 mM after 24 hrs by MTT assay relative to control
Assay type: cell-based
Conditions: read-out: Activity
In the case of COCCOCCOCCOCOc1c(C(C)C)cccc1C(C)C, the viability at 24 h, 50 µM is reported as > 90%.
For COCCOCCOCOc1c(C(C)C)cccc1C(C)C, the viability at 24 h, 50 µM was > 90%.
With COCCOCCOCCOC(=O)Oc1c(C(C)C)cccc1C(C)C the viability at 24 h, 50 µM was > 90%.
In the case of COCCOCCOC(=O)Oc1c(C(C)C)cccc1C(C)C, the viability at 24 h, 50 µM is reported as > 90%.
For COCCOCCOCCOCCOCCOCCOCOc1c(C(C)C)cccc1C(C)C, the viability at 24 h, 50 µM was > 90%.
With COCCOCCOCCOCCOCCOCCOCCOCOc1c(C(C)C)cccc1C(C)C the viability at 24 h, 50 µM was > 90%.
In the case of COCCOCCOCCOCCOCOc1c(C(C)C)cccc1C(C)C, the viability at 24 h, 50 µM is reported as > 90%.
With COCCOCCOCCOCCOCC(=O)Oc1c(C(C)C)cccc1C(C)C the viability at 24 h, 50 µM was > 90%.
With COCCOCCOCCOCC(=O)Oc1c(C(C)C)cccc1C(C)C the viability at 24 h, 50 µM was > 90%.
For COCCOCCOCCOCCOCCOCCOCC(=O)Oc1c(C(C)C)cccc1C(C)C, the viability at 24 h, 50 µM was > 90%.

Test system: not listed separately
Test: Solubility of the compound in pH 7.4 PBS buffer containing 60% methanol by ultraviolet spectroscopic method
Assay type: physicochemical
Conditions: not given
With COCCOCCOCOc1c(C(C)C)cccc1C(C)C the solubility was 200 µg/mL (≈ 644 µM).
Work on COCCOCCOC(=O)Oc1c(C(C)C)cccc1C(C)C yielded a solubility of 70 µg/mL (≈ 216 µM).

Test system: A549
Test: Cytotoxicity against human A549 cells after 24 hrs by MTT assay
Assay type: cell-based
Conditions: A549, 24 h
In the case of COCCOCCOCCOCOc1c(C(C)C)cccc1C(C)C, the EC50 is reported as > 10000 µM.
For CC(C)c1cccc(C(C)C)c1O [PROPOFOL], the EC50 was 9550 µM.
With COCCOCCOCOc1c(C(C)C)cccc1C(C)C the EC50 was > 10000 µM.
Work on COCCOCCOCCOC(=O)Oc1c(C(C)C)cccc1C(C)C yielded an EC50 of 2130 µM.
In the case of COCCOCCOC(=O)Oc1c(C(C)C)cccc1C(C)C, the EC50 is reported as > 10000 µM.
COCCOCCOCCOCCOCCOCCOCOc1c(C(C)C)cccc1C(C)C gave an EC50 of 510 µM.
Molecule COCCOCCOCCOCCOCCOCCOCCOCOc1c(C(C)C)cccc1C(C)C has an EC50 of 500 µM.
COCCOCCOCCOCCOCOc1c(C(C)C)cccc1C(C)C gave an EC50 of 1730 µM.
For COCCOCCOCCOCCOCC(=O)Oc1c(C(C)C)cccc1C(C)C, the EC50 was 630 µM.
Molecule COCCOCCOCCOCC(=O)Oc1c(C(C)C)cccc1C(C)C has an EC50 of 740 µM.
COCCOCCOCCOCCOCCOCCOCC(=O)Oc1c(C(C)C)cccc1C(C)C gave an EC50 of 520 µM.

Test system: Rattus norvegicus
Test: Anesthetic activity in Sprague-Dawley rat assessed as anesthetic duration time at 0.073 mmol/kg, iv for 10 secs
Assay type: functional
Conditions: not given
CC(C)c1cccc(C(C)C)c1O [PROPOFOL] gave a Time of 10.3 min.

Test system: not listed separately
Test: Cytotoxicity against mouse L929 cells assessed as cell viability at 0.05 mM after 24 hrs by MTT assay relative to control
Assay type: cell-based
Conditions: read-out: Activity
In the case of COCCOCCOCCOCOc1c(C(C)C)cccc1C(C)C, the viability at 24 h, 50 µM is reported as > 90%.
In the case of COCCOCCOCOc1c(C(C)C)cccc1C(C)C, the viability at 24 h, 50 µM is reported as > 90%.
With COCCOCCOCCOC(=O)Oc1c(C(C)C)cccc1C(C)C the viability at 24 h, 50 µM was > 90%.
For COCCOCCOC(=O)Oc1c(C(C)C)cccc1C(C)C, the viability at 24 h, 50 µM was > 90%.
With COCCOCCOCCOCCOCCOCCOCOc1c(C(C)C)cccc1C(C)C the viability at 24 h, 50 µM was > 90%.
With COCCOCCOCCOCCOCCOCCOCCOCOc1c(C(C)C)cccc1C(C)C the viability at 24 h, 50 µM was > 90%.
In the case of COCCOCCOCCOCCOCOc1c(C(C)C)cccc1C(C)C, the viability at 24 h, 50 µM is reported as > 90%.
With COCCOCCOCCOCCOCC(=O)Oc1c(C(C)C)cccc1C(C)C the viability at 24 h, 50 µM was > 90%.
In the case of COCCOCCOCCOCC(=O)Oc1c(C(C)C)cccc1C(C)C, the viability at 24 h, 50 µM is reported as > 90%.
For COCCOCCOCCOCCOCCOCCOCC(=O)Oc1c(C(C)C)cccc1C(C)C, the viability at 24 h, 50 µM was > 90%.

Test system: L929
Test: Cytotoxicity against mouse L929 cells after 24 hrs by MTT assay
Assay type: cell-based
Conditions: L929, 24 h
Molecule COCCOCCOCCOCOc1c(C(C)C)cccc1C(C)C has an EC50 of 1170 µM.
With CC(C)c1cccc(C(C)C)c1O [PROPOFOL] the EC50 was 4730 µM.
Work on COCCOCCOCOc1c(C(C)C)cccc1C(C)C yielded an EC50 of 4870 µM.
COCCOCCOCCOC(=O)Oc1c(C(C)C)cccc1C(C)C gave an EC50 of 2290 µM.
COCCOCCOC(=O)Oc1c(C(C)C)cccc1C(C)C showed an EC50 of 4600 µM.
For COCCOCCOCCOCCOCCOCCOCOc1c(C(C)C)cccc1C(C)C, the EC50 was 140 µM.
In the case of COCCOCCOCCOCCOCCOCCOCCOCOc1c(C(C)C)cccc1C(C)C, the EC50 is reported as 130 µM.
For COCCOCCOCCOCCOCOc1c(C(C)C)cccc1C(C)C, the EC50 was 900 µM.
COCCOCCOCCOCCOCC(=O)Oc1c(C(C)C)cccc1C(C)C gave an EC50 of 440 µM.
For COCCOCCOCCOCC(=O)Oc1c(C(C)C)cccc1C(C)C, the EC50 was 650 µM.
In the case of COCCOCCOCCOCCOCCOCCOCC(=O)Oc1c(C(C)C)cccc1C(C)C, the EC50 is reported as 110 µM.

Test system: Rattus norvegicus
Test: Toxicity in Sprague-Dawley rat assessed as death at 0.073 mmol/kg, iv for 10 secs
Assay type: organism-based
Conditions: in vivo, 10 s
In the case of COCCOCCOCCOCCOCCOCCOCCOCOc1c(C(C)C)cccc1C(C)C, the Activity is reported as “Toxic”.

Test system: not listed separately
Test: Critical micellar concentration of the compound in pyrene/acetone solution ultrasonicated for 30 mins followed by incubation in water bath at 60 degC for 40 mins and subsequent incubation at 40 degC for 12 hrs by fluorescence assay
Assay type: physicochemical
Conditions: buffer
With COCCOCCOCCOCCOCCOCCOCCOCOc1c(C(C)C)cccc1C(C)C the CMC was 0.6 mM.

Test system: Rattus norvegicus
Test: Anesthetic activity in Sprague-Dawley rat assessed as onset time for loss of righting reflex at 0.073 mmol/kg, iv for 10 secs
Assay type: functional
Conditions: not given
CC(C)c1cccc(C(C)C)c1O [PROPOFOL] showed a Time of 0 s.

Test system: not listed separately
Test: Solubility of the compound in pH 7.4 PBS buffer by ultraviolet spectroscopic method
Assay type: physicochemical
Conditions: not given
COCCOCCOCCOCOc1c(C(C)C)cccc1C(C)C gave a solubility of 280 µg/mL (≈ 790 µM).
In the case of COCCOCCOCCOC(=O)Oc1c(C(C)C)cccc1C(C)C, the solubility is reported as 190 µg/mL (≈ 516 µM).
Molecule COCCOCCOCCOCCOCCOCCOCOc1c(C(C)C)cccc1C(C)C has a solubility of 1250 µg/mL (≈ 2570 µM).
COCCOCCOCCOCCOCCOCCOCCOCOc1c(C(C)C)cccc1C(C)C showed a solubility of 55400 µg/mL (≈ 104000 µM).
For COCCOCCOCCOCCOCOc1c(C(C)C)cccc1C(C)C, the solubility was 570 µg/mL (≈ 1430 µM).
COCCOCCOCCOCCOCC(=O)Oc1c(C(C)C)cccc1C(C)C showed a solubility of 1580 µg/mL (≈ 3700 µM).
For COCCOCCOCCOCC(=O)Oc1c(C(C)C)cccc1C(C)C, the solubility was 990 µg/mL (≈ 2590 µM).
In the case of COCCOCCOCCOCCOCCOCCOCC(=O)Oc1c(C(C)C)cccc1C(C)C, the solubility is reported as 2020 µg/mL (≈ 3920 µM).
